According to patent publication US20240101521A1, “DIAMINOTRIAZINE COMPOUNDS” (BASF SE, priority 2021, published 2024):

Legend:
Test in all cases: greenhouse pre-emergence herbicidal test
Assay type in all cases: in vivo
Settings in all cases: scale 0 to 100
[1] = system: Abutilon theophrasti
Excerpt: (§1) The culture containers used were plastic flowerpots containing loamy sand with approximately 3.0% of humus as the substrate. The seeds of the test plants were sown separately for each species.
(§2) For the pre-emergence treatment, the active ingredients, which had been suspended or emulsified in water, were applied directly after sowing by means of finely distributing nozzles. The containers were irrigated gently to promote germination and growth and subsequently covered with transparent plastic hoods until the plants had rooted. This cover caused uniform germination of the test plants, unless this had been impaired by the active ingredients. For the post-emergence treatment, the test plants were first grown to a height of 3 to 15 cm, depending on the plant habit, and only then treated with the active ingredients which had been suspended or emulsified in water. For this purpose, the test plants were either sown directly and grown in the same containers, or they were first grown separately as seedlings and transplanted into the test containers a few days prior to treatment.
(§3) Depending on the species, the plants were kept at 10-25° C. or 20-35° C., respectively.
(§4) The test period extended over 2 to 4 weeks. During this time, the plants were tended, and their response to the individual treatments was evaluated.
(§5) Evaluation was carried out using a scale from 0 to 100. 100 means no emergence of the plants, or complete destruction of at least the aerial moieties, and 0 means no damage, or normal course of growth. A moderate herbicidal activity is given at values of at least 60, a good herbicidal activity is given at values of at least 70, and a very good herbicidal activity is given at values of at least 85.
(§6) The plants used in the greenhouse experiments were of the following species: […]

[2] = system: Echinochloa crus-galli
Excerpt: as §1, §2, §3, §4, §5, §6

[3] = system: Setaria faberi
Excerpt: as §1, §2, §3, §4, §5, §6

[4] = system: Amaranthus retroflexus
Excerpt: as §1, §2, §3, §4, §5, §6

## CC#CCOc1c(Cl)cc(F)c(F)c1Nc1nc(N)nc(C(C)(F)CCl)n1 (stereo not drawn) [Example 84]
[1]; pre-emergence, 62 g/ha
  herbicidal activity: 100%
[2]; pre-emergence, 62 g/ha
  herbicidal activity: 100%
[3]; pre-emergence, 62 g/ha
  herbicidal activity: 100%

## CC#CCOc1c(Br)cc(F)c(F)c1Nc1nc(N)nc(C(C)(C)OC)n1 [Example 85]
[1]; pre-emergence, 62 g/ha
  herbicidal activity: 85%
[2]; pre-emergence, 62 g/ha
  herbicidal activity: 100%
[3]; pre-emergence, 62 g/ha
  herbicidal activity: 98%

## C#CCOc1c(Cl)cc(F)c(F)c1Nc1nc(N)nc(C(C)(C)OC)n1 [Example 88]
[4]; pre-emergence, 62 g/ha
  herbicidal activity: 100%
[2]; pre-emergence, 62 g/ha
  herbicidal activity: 100%
[3]; pre-emergence, 62 g/ha
  herbicidal activity: 100%

## C#CCOc1c(Br)cc(F)c(F)c1Nc1nc(N)nc(C(C)F)n1 (stereo not drawn) [Example 89]
[4]; pre-emergence, 62 g/ha
  herbicidal activity: 100%
[2]; pre-emergence, 62 g/ha
  herbicidal activity: 100%
[3]; pre-emergence, 62 g/ha
  herbicidal activity: 100%

## CC#CCOc1c(Br)cc(F)c(F)c1Nc1nc(N)nc(C(C)F)n1 (stereo not drawn) [Example 90]
[4]; pre-emergence, 62 g/ha
  herbicidal activity: 100%
[2]; pre-emergence, 62 g/ha
  herbicidal activity: 100%
[3]; pre-emergence, 62 g/ha
  herbicidal activity: 100%

## C#CCOc1c(Cl)cc(F)c(F)c1Nc1nc(N)nc(C(C)F)n1 (stereo not drawn) [Example 91]
[4]; pre-emergence, 62 g/ha
  herbicidal activity: 100%
[2]; pre-emergence, 62 g/ha
  herbicidal activity: 100%
[3]; pre-emergence, 62 g/ha
  herbicidal activity: 100%

## CC#CCOc1c(Cl)cc(F)c(F)c1Nc1nc(N)nc(C(C)F)n1 (stereo not drawn) [Example 92]
[4]; pre-emergence, 62 g/ha
  herbicidal activity: 100%
[2]; pre-emergence, 62 g/ha
  herbicidal activity: 100%
[3]; pre-emergence, 62 g/ha
  herbicidal activity: 100%

## CC(C)(F)c1nc(N)nc(Nc2c(F)c(Cl)cc(Cl)c2OC(F)F)n1 [Example 93]
[4]; pre-emergence, 62 g/ha
  herbicidal activity: 100%
[2]; pre-emergence, 62 g/ha
  herbicidal activity: 100%
[3]; pre-emergence, 62 g/ha
  herbicidal activity: 100%

## CC#CCOc1c(Cl)cc(F)c(F)c1Nc1nc(N)nc(C(F)C2CC2)n1 (stereo not drawn) [Example 94]
[4]; pre-emergence, 62 g/ha
  herbicidal activity: 100%
[2]; pre-emergence, 62 g/ha
  herbicidal activity: 100%
[3]; pre-emergence, 62 g/ha
  herbicidal activity: 100%

## CC#CC(C)Oc1c(Br)cc(F)c(F)c1Nc1nc(N)nc(C(C)(C)F)n1 (stereo not drawn) [Example 95]
[4]; pre-emergence, 62 g/ha
  herbicidal activity: 100%
[2]; pre-emergence, 62 g/ha
  herbicidal activity: 100%
[3]; pre-emergence, 62 g/ha
  herbicidal activity: 100%

## C#CC(C)Oc1c(Cl)cc(F)c(F)c1Nc1nc(N)nc(C(C)(C)F)n1 (stereo not drawn) [Example 99]
[1]; pre-emergence, 62 g/ha
  herbicidal activity: 100%
[4]; pre-emergence, 62 g/ha
  herbicidal activity: 100%
[3]; pre-emergence, 62 g/ha
  herbicidal activity: 100%

## C#CC(C)Oc1c(F)cc(F)c(F)c1Nc1nc(N)nc(C2(F)CCCC2)n1 (stereo not drawn) [Example 105]
[1]; pre-emergence, 62,5 g/ha
  herbicidal activity: 100%
[2]; pre-emergence, 62,5 g/ha
  herbicidal activity: 100%
[3]; pre-emergence, 62,5 g/ha
  herbicidal activity: 100%

## CC(C)(F)c1nc(N)nc(Nc2c(F)c(F)cc(Br)c2OCF)n1 [Example 106]
[1]; pre-emergence, 62,5 g/ha
  herbicidal activity: 100%
[2]; pre-emergence, 62,5 g/ha
  herbicidal activity: 100%
[3]; pre-emergence, 62,5 g/ha
  herbicidal activity: 100%

## Nc1nc(Nc2c(F)c(F)cc(F)c2OCF)nc(C2(F)CCCC2)n1 [Example 107]
[1]; pre-emergence, 62,5 g/ha
  herbicidal activity: 100%
[2]; pre-emergence, 62,5 g/ha
  herbicidal activity: 100%
[3]; pre-emergence, 62,5 g/ha
  herbicidal activity: 100%

## CCOc1c(Cl)cc(F)c(F)c1Nc1nc(N)nc(C2(F)CCCCC2)n1 [Example 110]
[4]; pre-emergence, 62,5 g/ha
  herbicidal activity: 95%
[2]; pre-emergence, 62,5 g/ha
  herbicidal activity: 100%
[3]; pre-emergence, 62,5 g/ha
  herbicidal activity: 85%

## C#CCOc1c(Cl)cc(F)c(F)c1Nc1nc(N)nc(C2(F)CCCCC2)n1 [Example 112]
[4]; pre-emergence, 62,5 g/ha
  herbicidal activity: 95%
[2]; pre-emergence, 62,5 g/ha
  herbicidal activity: 95%
[3]; pre-emergence, 62,5 g/ha
  herbicidal activity: 90%

## COc1c(Cl)cc(F)c(F)c1Nc1nc(N)nc(C(C)(F)CBr)n1 (stereo not drawn) [Example 114]
[1]; pre-emergence, 62,5 g/ha
  herbicidal activity: 100%
[4]; pre-emergence, 62,5 g/ha
  herbicidal activity: 100%
[3]; pre-emergence, 62,5 g/ha
  herbicidal activity: 100%

## CCC(C)(F)c1nc(N)nc(Nc2c(F)c(F)cc(Br)c2OC)n1 (stereo not drawn) [Example 117]
[1]; pre-emergence, 62,5 g/ha
  herbicidal activity: 98%
[4]; pre-emergence, 62,5 g/ha
  herbicidal activity: 100%
[3]; pre-emergence, 62,5 g/ha
  herbicidal activity: 100%

## C#CC(C)(F)c1nc(N)nc(Nc2c(F)c(F)cc(Cl)c2OC)n1 (stereo not drawn) [Example 118]
[1]; pre-emergence, 62,5 g/ha
  herbicidal activity: 100%
[4]; pre-emergence, 62,5 g/ha
  herbicidal activity: 100%
[3]; pre-emergence, 62,5 g/ha
  herbicidal activity: 100%

## C=CC(C)(F)c1nc(N)nc(Nc2c(F)c(F)cc(Br)c2OC)n1 (stereo not drawn) [Example 121]
[1]; pre-emergence, 62,5 g/ha
  herbicidal activity: 100%
[4]; pre-emergence, 62,5 g/ha
  herbicidal activity: 100%
[3]; pre-emergence, 62,5 g/ha
  herbicidal activity: 100%

## C=CC(C)(F)c1nc(N)nc(Nc2c(F)c(F)cc(Cl)c2OC)n1 (stereo not drawn) [Example 122]
[1]; pre-emergence, 62,5 g/ha
  herbicidal activity: 100%
[4]; pre-emergence, 62,5 g/ha
  herbicidal activity: 100%
[3]; pre-emergence, 62,5 g/ha
  herbicidal activity: 100%

## COc1c(Cl)c(F)c(F)c(F)c1Nc1nc(N)nc(C(C)(C)C)n1 [Example 162]
[1]; pre-emergence, 62,5 g/ha
  herbicidal activity: 95%
[2]; pre-emergence, 62,5 g/ha
  herbicidal activity: 95%
[3]; pre-emergence, 62,5 g/ha
  herbicidal activity: 100%
